Source: patent US12686687B2, “Compounds and uses thereof” (Foghorn Therapeutics Inc., priority 2019, dated 2026)
Where two headings read alike, the source gives them in different places.

Biological target: T1, Nanoluciferase-BRD9 fusion protein (3×FLAG-NLuc-BRD9) in SYO-1 cells (Homo sapiens, UniProt Q9H8M2)
T1 construct: expressed in transfected cells; host or cells: SYO-1
T1 sequence (Q9H8M2 1-597): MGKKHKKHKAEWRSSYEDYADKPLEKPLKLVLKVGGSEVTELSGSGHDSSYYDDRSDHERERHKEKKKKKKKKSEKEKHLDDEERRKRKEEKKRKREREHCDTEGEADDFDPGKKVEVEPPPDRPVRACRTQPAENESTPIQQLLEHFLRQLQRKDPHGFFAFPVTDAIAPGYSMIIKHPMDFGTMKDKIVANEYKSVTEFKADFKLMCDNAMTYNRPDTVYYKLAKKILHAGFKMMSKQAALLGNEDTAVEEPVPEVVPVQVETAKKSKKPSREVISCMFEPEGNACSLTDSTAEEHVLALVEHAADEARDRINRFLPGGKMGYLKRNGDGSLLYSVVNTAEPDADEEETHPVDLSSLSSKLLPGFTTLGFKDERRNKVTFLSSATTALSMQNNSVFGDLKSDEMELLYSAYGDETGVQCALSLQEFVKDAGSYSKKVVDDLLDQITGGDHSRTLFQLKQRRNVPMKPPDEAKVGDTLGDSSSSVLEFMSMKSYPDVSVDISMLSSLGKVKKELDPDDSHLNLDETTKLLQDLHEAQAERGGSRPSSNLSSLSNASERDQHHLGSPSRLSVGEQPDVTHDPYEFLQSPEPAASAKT
Assay: SYO1 BRD9 NanoLuc degradation assay
Assay type: cell-based
Settings: SYO-1 cells expressing 3×FLAG-NLuc-BRD9, 6 hours incubation, 1 μM top dose, read-out: SYO1 BRD9-NanoLuc degradation IC50
Protocol: Procedure: A stable SYO-1 cell line expressing 3×FLAG-NLuc-BRD9 was generated. On day 0 cells were seeded in 30 μL media into each well of 384-well cell culture plates. The seeding density was 8000 cells/well. On day 1, cells were treated with 30 nL DMSO or 30 nL of 3-fold serially DMSO-diluted compounds (10 points in duplicates with 1 μM as final top dose). Subsequently plates were incubated for 6 hours in a standard tissue culture incubator and equilibrated at room temperature for 15 minutes. Nanoluciferase activity was measured by adding 15 μL of freshly prepared Nano-Glo Luciferase Assay Reagent (Promega N1130), shaking the plates for 10 minutes and reading the bioluminescence using an EnVision reader. • Results: The Inhibition % was calculated using the following formula: % Inhibition=100×(LumHC−LumSample)/(LumHC−LumLC). DMSO treated cells are employed as High Control (HC) and 1 μM of a known BRD9 degrader standard treated cells are employed as Low Control (LC).

With `COc1cc(-c2cn(C)c(=O)c3cc(C(=O)NC4CCN(C5CCN(c6ccc7c(c6)C(=O)N(C6CCC(=O)NC6=O)C7)CC5)CC4)sc23)cc(OC)c1CN(C)C` (stereo not drawn) [Compound D150] the DC50 (Table 6C) was less than 10 nM.
In the case of `COc1cc(-c2cn(C)c(=O)c3cc(C(=O)NC4CCN(C5CCN(c6ccc7c(c6)CN(C6CCC(=O)NC6=O)C7=O)CC5)CC4(F)F)sc23)cc(OC)c1CN(C)C` (stereo not drawn) [Compound D25], the DC50 (Table 6B) is reported as less than 10 nM.
Work on `COc1cc(-c2cn(C)c(=O)c3cc(C(=O)N[C@H]4CCN(C5CCN(c6ccc7c(c6)C(=O)N(C6CCC(=O)NC6=O)C7)CC5)CC4(F)F)sc23)cc(OC)c1CN(C)C` (stereo partly drawn) [Compound D167] yielded a DC50 (Table 6C) of less than 10 nM.
In the case of `COc1cc(-c2cn(C)c(=O)c3cc(C(=O)NC4CC5(CCN(CCN6CCN(c7ccc8c(c7)C(=O)N([C@@H]7CCC(=O)NC7=O)C8=O)CC6)C5)C4)sc23)cc(OC)c1CN(C)C` (stereo partly drawn) [Compound D65], the DC50 (Table 6B) is reported as less than 10 nM.
In the case of `CNC(=O)c1cc2c(=O)n(C)cc(-c3cc(OC)c(CN4CCC5(CC4)CN(c4ccc6c(c4)C(=O)N(C4CCC(=O)NC4=O)C6)C5)c(OC)c3)c2s1` (stereo not drawn) [Compound D138], the DC50 (Table 6C) is reported as less than 10 nM.
Compound `COc1cc(-c2cn(C)c(=O)c3ccsc23)cc(OC)c1CN1CCC(CN2CCC3(CC2)CC(Oc2ccc4c(c2)CN(C2CCC(=O)NC2=O)C4=O)C3)CC1` (stereo not drawn) [Compound D220] has a DC50 (Table 6C) of less than 10 nM.
With `COc1cc(-c2cn(C)c(=O)c3scnc23)cc(OC)c1CN1CCC2(CC1)CN(c1ccc3c(c1)C(=O)N(C1CCC(=O)NC1=O)C3)C2` (stereo not drawn) [Compound D215] the DC50 (Table 6C) was less than 10 nM.
Compound `COc1cc(-c2cn(C)c(=O)c3ncsc23)cc(OC)c1CN1CC(Oc2ccc3c(c2)CN(C2CCC(=O)NC2=O)C3=O)C1` (stereo not drawn) [Compound D206] has a DC50 (Table 6C) of less than 10 nM.
With `COc1cc(-c2cn(C)c(=O)c3cc(C(=O)NCC4CC5(C4)CN(CCCN4CCN(c6ccc7c(c6)C(=O)N(C6CCC(=O)NC6=O)C7=O)CC4)C5)sc23)cc(OC)c1CN(C)C` (stereo not drawn) [Compound D52] the DC50 (Table 6B) was greater than 10 nM.
`COc1cc(-c2cn(C)c(=O)c3cc(C(=O)NCC4CC5(CCN(C(=O)CCN6CCN(c7ccc8c(c7)C(=O)N(C7CCC(=O)NC7=O)C8=O)CC6)CC5)O4)sc23)cc(OC)c1CN(C)C` (stereo not drawn) [Compound D61] was tested, and the DC50 (Table 6B) was greater than 100 nM.
`COc1cc(-c2cn(C)c(=O)c3cc(C(=O)NC4CCN(c5ccc(OC6CCC(=O)NC6=O)cc5)CC4)sc23)cc(OC)c1CN(C)C` (stereo not drawn) [Compound D105] gave a DC50 (Table 6C) of less than 10 nM.
Compound `COc1cc(-c2cn(C)c(=O)c3cc(NC4CCN(C(=O)CCCCOc5ccc6c(c5)C(=O)N(C5CCC(=O)NC5=O)C6=O)CC4)sc23)cc(OC)c1CN(C)C` (stereo not drawn) [Compound D71] has a DC50 (Table 6B) greater than 10 nM.
Compound `COc1cc(-c2cn(C)c(=O)c3cc(C(=O)NCC4CC5CN(C(=O)CCN6CCN(c7ccc8c(c7)C(=O)N(C7CCC(=O)NC7=O)C8=O)CC6)CC5C4)sc23)cc(OC)c1CN(C)C` (stereo not drawn) [Compound D34] has a DC50 (Table 6B) greater than 100 nM.
With `COc1cc(-c2cn(C)c(=O)c3ccsc23)cc(OC)c1CN1[C@H](C)CN(c2ccc3c(c2)C(=O)N(C2CCC(=O)NC2=O)C3)C[C@H]1C` (stereo partly drawn) [Compound D144] the DC50 (Table 6C) was less than 10 nM.
`COc1cc(-c2cn(C)c(=O)c3cc(C)sc23)cc(OC)c1CN1CCC(CN2CCC3(CC2)CN(c2ccc4c(c2)C(=O)N(C2CCC(=O)NC2=O)C4=O)C3)CC1` (stereo not drawn) [Compound D184] gave a DC50 (Table 6C) of less than 10 nM.
`COc1cc(-c2cn(C)c(=O)c3cc(C(=O)NCC4CC5CN(CCN6CCN(c7ccc8c(c7)C(=O)N(C7CCC(=O)NC7=O)C8=O)CC6)CC5C4)sc23)cc(OC)c1CN(C)C` (stereo not drawn) [Compound D43] gave a DC50 (Table 6B) of less than 10 nM.
In the case of `COc1cc(OC)cc(-c2cn(C)c(=O)c3cc(C(=O)NC4CCN(c5cccc(OC6CCC(=O)NC6=O)c5)CC4)sc23)c1` (stereo not drawn) [Compound D96], the DC50 (Table 6C) is reported as less than 10 nM.
Work on `COc1cc(OC)cc(-c2cn(C)c(=O)c3cc(C(=O)NC4CCN(c5ccc6c(c5)C(=O)N(C5CCC(=O)NC5=O)C6)CC4)sc23)c1` (stereo not drawn) [Compound D109] yielded a DC50 (Table 6C) of less than 10 nM.
With `COc1cc(OC)cc(-c2cn(C)c(=O)c3cc(C(=O)NC4CCN(c5ccc6c(c5)C(=O)N(C5CCC(=O)NC5=O)C6)CC4(F)F)sc23)c1` (stereo not drawn) [Compound D131] the DC50 (Table 6C) was less than 10 nM.
For `COc1cc(-c2cn(C)c(=O)c3cc(C(=O)NC4CCC45CCN(CCCN4CCN(c6ccc7c(c6)C(=O)N(C6CCC(=O)NC6=O)C7=O)CC4)CC5)sc23)cc(OC)c1CN(C)C` (stereo not drawn) [Compound D55], the DC50 (Table 6B) was greater than 100 nM.
`COc1cc(-c2cn(C)c(=O)c3ccsc23)cc(OC)c1CN1CC(C#Cc2ccc3c(c2)C(=O)N(C2CCC(=O)NC2=O)C3)C1` (stereo not drawn) [Compound D92] gave a DC50 (Table 6C) of less than 10 nM.
With `COc1cc(-c2cn(C)c(=O)c3cc(C(=O)NC4CCN(c5ccc6c(c5)C(=O)N(C5CCC(=O)NC5=O)C6)CC4(F)F)sc23)cc(OC)c1CN(C)C` (stereo not drawn) [Compound D165] the DC50 (Table 6C) was less than 10 nM.
`[2H]C([2H])([2H])n1cc(-c2cc(OC)c(CN3CCN(c4ccc5c(c4)C(=O)N(C4CCC(=O)NC4=O)C5)CC3)c(OC)c2)c2sccc2c1=O` (stereo not drawn) [Compound D147] was tested, and the DC50 (Table 6C) was less than 10 nM.
`COc1cc(-c2cn(C)c(=O)c3cc(C(=O)NC4CCN(c5cccc(OC6CCC(=O)NC6=O)c5)CC4)sc23)cc(OC)c1CN(C)C` (stereo not drawn) [Compound D108] was tested, and the DC50 (Table 6C) was less than 10 nM.
Compound `COc1cc(-c2cn(C)c(=O)c3cc(C(=O)NC4CCN(c5ccc6c(c5)C(=O)N(C5CCC(=O)NC5=O)C6)CC4(F)F)sc23)cc(F)c1CN(C)C` (stereo not drawn) [Compound D118] has a DC50 (Table 6C) of less than 10 nM.
With `COc1cc(-c2cn(C)c(=O)c3cc(C(=O)NC4CC5CC4CN5CCCN4CCN(c5ccc6c(c5)C(=O)N(C5CCC(=O)NC5=O)C6=O)CC4)sc23)cc(OC)c1CN(C)C` (stereo not drawn) [Compound D69] the DC50 (Table 6B) was greater than 10 nM.
Compound `COc1cc(-c2cn(C)c(=O)c3cc(C(=O)NC4CCN(CCN5CCN(c6ccc7c(c6)CN(C6CCC(=O)NC6=O)C7=O)CC5)CC4(F)F)sc23)cc(OC)c1CN(C)C` (stereo not drawn) [Compound D196] has a DC50 (Table 6C) of less than 10 nM.
With `COc1cc(-c2cn(C)c(=O)c3cc(C(=O)NC4CN(C5CCN(c6ccc7c(c6)CN(C6CCC(=O)NC6=O)C7=O)CC5)CC4(F)F)sc23)cc(OC)c1CN(C)C` (stereo not drawn) [Compound D181] the DC50 (Table 6C) was less than 10 nM.
Compound `COc1cc(-c2cn(C)c(=O)c3ccsc23)cc(OC)c1CN1CC(Oc2ccc3c(c2)CN(C2CCC(=O)NC2=O)C3=O)C1` (stereo not drawn) [Compound D170] has a DC50 (Table 6C) of less than 10 nM.
Compound `COc1cc(-c2cn(C)c(=O)c3cc(C(=O)NC4CCN(C(C)=O)CC4)sc23)cc(OC)c1CN1CCC(CCN2CCN(c3ccc4c(c3)C(=O)N(C3CCC(=O)NC3=O)C4=O)CC2)CC1` (stereo not drawn) [Compound D27] has a DC50 (Table 6B) of less than 10 nM.
`COc1cc(-c2cn(C)c(=O)c3cc(C(=O)NC4CCN(CCC5CCN(c6ccc7c(c6)CN(C6CCC(=O)NC6=O)C7=O)CC5)CC4(F)F)sc23)cc(OC)c1CN(C)C` (stereo not drawn) [Compound D102] gave a DC50 (Table 6C) of less than 10 nM.
For `COc1cc(-c2cn(C)c(=O)c3cc(C(=O)NC4CCN(C5CC6(C5)CN(c5ccc7c(c5)C(=O)N(C5CCC(=O)NC5=O)C7)C6)CC4(F)F)sc23)cc(OC)c1CN(C)C` (stereo not drawn) [Compound D145], the DC50 (Table 6C) was greater than 100 nM.
In the case of `COc1cc(-c2cn(C)c(=O)c3cc(C(=O)NCC4CC5(CCN(CCN6CCN(c7ccc8c(c7)C(=O)N(C7CCC(=O)NC7=O)C8=O)CC6)CC5)O4)sc23)cc(OC)c1CN(C)C` (stereo not drawn) [Compound D62], the DC50 (Table 6B) is reported as greater than 10 nM.
Compound `COc1cc(-c2cn(C)c(=O)c3cc(C(=O)Nc4cccc(OC5CCC(=O)NC5=O)c4)sc23)cc(OC)c1CN(C)C` (stereo not drawn) [Compound D95] has a DC50 (Table 6C) greater than 100 nM.
Compound `COc1cc(-c2cn(C)c(=O)c3cc(C(C)C)sc23)cc(OC)c1CN1CCC2(CC1)CN(c1ccc3c(c1)C(=O)N(C1CCC(=O)NC1=O)C3)C2` (stereo not drawn) [Compound D110] has a DC50 (Table 6C) of less than 10 nM.
Work on `COc1cc(-c2cn(C)c(=O)c3cc(C(=O)NC4CCN(CCCCCOc5cccc6c5C(=O)N(C5CCC(=O)NC5=O)C6=O)CC4(F)F)sc23)cc(OC)c1CN(C)C` (stereo not drawn) [Compound D16] yielded a DC50 (Table 6B) of less than 10 nM.
